These results are taken from paper PMC9598925, “Synthetic Amphipathic β-Sheet Temporin-Derived Peptide with Dual Antibacterial and Anti-Inflammatory Activities” (Antibiotics, 2022).

The structures appear in SMILES notation. Non-standard residues stand in square brackets, D forms with d. Residues, ends and D or L forms follow the SMILES beside them. Nle = CCCC[C@H](N)C(=O)O

One data set deals with HaCaT cells. The data set can be described thus: Cytotoxicity on human keratinocytes, MTT assay. As to conditions: 3.12–12.5 μM, 2 h and 24 h. Format: cell-based. The protocol: The human immortalized keratinocytes HaCaT cells were purchased from AddexBio (San Diego, CA, USA) and cultured in Dulbecco’s modified Eagle’s medium supplemented with 4 mM glutamine (DMEMg), 10% heat-inactivated fetal bovine serum (FBS), and 0.1 mg/mL of penicillin and streptomycin, at 37 °C and 5% CO2, in 25 cm^2 or 75 cm^2 flasks. The in vitro MTT [3-(4,5-dimethylthiazol-2-yl)-2,5-diphenyltetrazolium bromide] assay, based on the reduction of the yellow tetrazolium salt MTT to the purple formazan by viable cells with active metabolism, was used to evaluate the peptide cytotoxicity on HaCaT cells, as previously described in [27]. Specifically, 4 × 10^4 HaCaT cells, suspended in DMEMg supplemented with 2% FBS were plated in a 96-well microtiter plate. After overnight incubation, at 37 °C in a 5% CO2 atmosphere, HaCaT cells were treated for 2 h or 24 h with fresh serum free medium containing the peptide [Nle^1, DLeu^9, DLys^10]TL in a concentration range from 3.12 to 100 μM. […] Formazan crystals were dissolved using acidified isopropanol, and the absorbance of each well was measured at 570 nm using a microplate reader (Infinite M200; Tecan, Salzburg, Austria). The number of viable cells was proportional to the intensity of purple color and was expressed as percentage compared to that of untreated control cells (100%). […]
On the technique in general: Formazan colour is commonly taken as a measure of viable cells.

Data set [1] can be described thus: Peptide aggregation in aqueous solution, Nile Red. The format is physicochemical. As to conditions: Nile Red 500 nM, 1–200 μM peptide, 1 h equilibration at room temperature, fluorescence, triplicate, Boltzmann fit. The protocol:
Nile Red (NR) was used as fluorescent probe to monitor the aggregation in solution [51]. NR is not very soluble in water and has a large preference to move into hydrophobic environment as aggregates, producing a blue shift and hyperchromic effect. The peptide stock (400 μM) was prepared in 1,1,1,3,3,3-hexafluoro-2-propanol (HFIP) as solvent and different aliquots were taken to prepare each peptide solution at different concentrations (1, 5, 10, 15, 20, 30, 50, 100, and 200 μM). Then, HFIP was removed under nitrogen stream, 1 mL of water was added, and the solution was sonicated for 15 min and freeze-dried. Finally, the peptide powders were dissolved with a solution of 500 nM of NR in water and equilibrated for 1 h at room temperature. Emission spectra for each solution were measured between 570 and 700 nm by a Cary Eclipse Varian spectrometer (San Diego, CA, USA), setting a slit width of 5 nm and an excitation wavelength of 550 nm and a 10 nm slit width. The measurements were performed in triplicate. The data were analyzed by plotting the maximum emission fluorescence corresponding wavelength (y) as a function of peptide concentration (x) and fitting with the sigmoidal Boltzmann equation as described previously.

Data set [2] in a line: Peptide aggregation in LUVs, Thioflavin T. Format: physicochemical. Conditions: LUVs DOPG/CL (58/42), 0.1 mM lipid. The protocol: Regarding peptide aggregation in LUVs, was monitored using the Thioflavin T as fluorescent probe. LUVs were prepared using the extrusion method. Firstly, the lipid films (final concentration of 0.1 mM), made of DOPG, CL (58/42 ratio in moles) and DOPG/DOPE/CL (63/23/12 ratio in moles), were prepared by dissolving an appropriate amount of lipids in chloroform. The solvent was removed under nitrogen stream, water was added, and the film lipids were freeze-dried. Then, the lipid films were hydrated with 100 mM NaCl, 10 mM Tris-HCl, 25 μM Tht buffer, pH 7.4, and vortexed for 1 h. Then, the lipid suspension was freeze-thawed 6 times and extruded 10 times through polycarbonate membranes with […] diameter pores to obtain LUVs. The aggregation of [Nle^1, DLeu^9, DLys^10]TL was monitored titrating LUVs with different peptide concentrations of 5, 10, 15, 20, 30, 50 μM. Spectra were recorded before and after the addition of peptide using a Varian Cary Eclipse fluorescence spectrometer, exciting the sample at 450 nm (slit width, 10 nm) and recording fluorescence emission at 482 nm (slit width, 5 nm). Aggregation was quantified according to this equation: %A= […] × 100, where Ff indicates the value of fluorescence after peptide addition, F0 the fluorescence in the absence of peptide and Fmax is the fluorescence maximum obtained immediately after peptide addition.

In the case of `CCCC[C@H](N)C(=O)N[C@@H](Cc1ccccc1)C(=O)N[C@H](C(=O)N1CCC[C@H]1C(=O)N[C@@H](Cc1c[nH]c2ccccc12)C(=O)N[C@@H](Cc1ccccc1)C(=O)N[C@@H](CO)C(=O)N[C@@H](CCCCN)C(=O)N[C@@H](Cc1ccccc1)C(=O)N[C@H](CC(C)C)C(=O)N[C@H](CCCCN)C(=O)N[C@@H](CCCNC(=N)N)C(=O)N[C@H](C(=O)N[C@@H](CC(C)C)C(N)=O)[C@@H](C)CC)C(C)C` [[Nle^1, DLeu^9, DLys^10]TL] (H-[Nle]FVPWFSKF[dL][dK]RIL-NH2), in the data set with HaCaT cells, the “effect on human keratinocytes viability” value is “only a slight reduction”. Moreover, the “critical aggregation concentration (CAC)” value in data set [1] turned out to be 38.9 µM. The “aggregation (ThT)” value was ~ 22% in data set [2] (5 μM peptide, pH 7.4, 25 μM ThT fluorescence) and “completely aggregated” in data set [2] (30 μM peptide, pH 7.4, ThT fluorescence).
